Data on 9 molecules can be found in ChEMBL document CHEMBL5465560, “Selectivity Literature for EUbOPEN Chemogenomic Library” (2024).

Assay [1] has as its target Calcium/calmodulin-dependent protein kinase type II subunit gamma (Homo sapiens) (UniProt Q13555). Put plainly: Selectivity interaction (Ambit KINOMEscan and KiNATiv profiling in Jurkat cells) EUB0000090b CAMK2G. Conditions: at 1 µM. It counts as cell-based.
For assay [2], the target named is Death-associated protein kinase 2 (Homo sapiens) (UniProt Q9UIK4). Put plainly: Selectivity interaction (Ambit KINOMEscan and KiNATiv profiling in Jurkat cells) EUB0000090b DAPK2. The format is cell-based. The note with it: at 1 µM.
Death-associated protein kinase 2 (Homo sapiens), sequence (Q9UIK4 whole entry, looked up): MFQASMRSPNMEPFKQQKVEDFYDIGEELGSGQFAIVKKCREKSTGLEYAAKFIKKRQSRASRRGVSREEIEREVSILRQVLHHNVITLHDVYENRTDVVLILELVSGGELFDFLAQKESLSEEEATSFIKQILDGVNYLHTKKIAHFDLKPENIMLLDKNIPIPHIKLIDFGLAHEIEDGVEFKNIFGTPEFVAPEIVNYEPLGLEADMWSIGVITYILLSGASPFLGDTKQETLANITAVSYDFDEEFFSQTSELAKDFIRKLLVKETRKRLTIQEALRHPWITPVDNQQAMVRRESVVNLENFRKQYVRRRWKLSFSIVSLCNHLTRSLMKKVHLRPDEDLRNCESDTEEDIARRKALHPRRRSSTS
The target of assay [3] is T1, NUAK family SNF1-like kinase 2 (Homo sapiens) (UniProt Q9H093).
T1 sequence (whole entry): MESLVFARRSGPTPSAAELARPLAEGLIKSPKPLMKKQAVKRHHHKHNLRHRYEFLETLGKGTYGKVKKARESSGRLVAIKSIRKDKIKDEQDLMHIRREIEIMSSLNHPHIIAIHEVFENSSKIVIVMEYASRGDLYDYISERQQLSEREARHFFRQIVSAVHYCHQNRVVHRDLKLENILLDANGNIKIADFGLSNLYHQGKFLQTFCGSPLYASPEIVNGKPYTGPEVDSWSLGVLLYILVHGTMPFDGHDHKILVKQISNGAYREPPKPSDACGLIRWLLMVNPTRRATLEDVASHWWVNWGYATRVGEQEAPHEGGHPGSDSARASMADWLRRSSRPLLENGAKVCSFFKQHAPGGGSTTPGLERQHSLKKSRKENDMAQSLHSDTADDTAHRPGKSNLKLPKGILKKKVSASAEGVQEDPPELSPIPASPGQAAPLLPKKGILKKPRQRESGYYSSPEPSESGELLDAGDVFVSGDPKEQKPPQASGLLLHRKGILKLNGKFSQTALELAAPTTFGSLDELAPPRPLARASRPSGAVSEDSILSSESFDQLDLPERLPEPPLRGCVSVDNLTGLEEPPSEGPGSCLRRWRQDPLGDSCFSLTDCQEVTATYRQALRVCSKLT
Put plainly: Selectivity interaction (Ambit KINOMEscan and KiNATiv profiling in Jurkat cells) EUB0000090b NUAK2. The note with it: at 1 µM. It counts as cell-based.

The target in assay [4] is Neuronal acetylcholine receptor; alpha4/beta2 (Homo sapiens) (UniProt P17787+P43681). Put plainly: Selectivity interaction (Panel of non-epigenetic targets (kinases, GPCRs, ion channels, and transporters, Eurofins) ) EUB0000271b CHRNA4. The format is protein-complex assay. Conditions: at 1 µM.
Assay [5] has as its target Non-receptor tyrosine-protein kinase TYK2 (Homo sapiens, UniProt P29597). Conditions: at 10 µM.
Assay [6] deals with T2, Serine/threonine-protein kinase ULK3 (Homo sapiens) (UniProt Q6PHR2).
T2 sequence (whole entry): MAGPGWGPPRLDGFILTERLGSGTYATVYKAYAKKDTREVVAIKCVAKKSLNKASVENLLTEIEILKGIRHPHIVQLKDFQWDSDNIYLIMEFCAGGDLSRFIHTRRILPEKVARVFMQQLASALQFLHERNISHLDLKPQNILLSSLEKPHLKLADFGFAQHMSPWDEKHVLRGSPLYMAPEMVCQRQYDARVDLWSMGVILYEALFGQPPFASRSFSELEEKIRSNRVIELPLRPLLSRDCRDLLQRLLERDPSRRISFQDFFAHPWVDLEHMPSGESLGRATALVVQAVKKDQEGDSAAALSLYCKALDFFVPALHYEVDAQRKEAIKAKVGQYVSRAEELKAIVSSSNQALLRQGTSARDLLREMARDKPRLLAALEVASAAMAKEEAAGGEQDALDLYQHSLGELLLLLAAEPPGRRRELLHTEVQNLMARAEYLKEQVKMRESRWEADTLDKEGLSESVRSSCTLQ
The note with it: at 10 µM.

The target of assay [7] is Cyclin-dependent kinase 15 (Homo sapiens) (UniProt Q96Q40). The assay can be described thus: Selectivity interaction (KinomeScan (DiscoverX)) EUB0000666a CDK15. Conditions: at 10 µM.
Cyclin-dependent kinase 15 (Homo sapiens), sequence (Q96Q40 whole entry): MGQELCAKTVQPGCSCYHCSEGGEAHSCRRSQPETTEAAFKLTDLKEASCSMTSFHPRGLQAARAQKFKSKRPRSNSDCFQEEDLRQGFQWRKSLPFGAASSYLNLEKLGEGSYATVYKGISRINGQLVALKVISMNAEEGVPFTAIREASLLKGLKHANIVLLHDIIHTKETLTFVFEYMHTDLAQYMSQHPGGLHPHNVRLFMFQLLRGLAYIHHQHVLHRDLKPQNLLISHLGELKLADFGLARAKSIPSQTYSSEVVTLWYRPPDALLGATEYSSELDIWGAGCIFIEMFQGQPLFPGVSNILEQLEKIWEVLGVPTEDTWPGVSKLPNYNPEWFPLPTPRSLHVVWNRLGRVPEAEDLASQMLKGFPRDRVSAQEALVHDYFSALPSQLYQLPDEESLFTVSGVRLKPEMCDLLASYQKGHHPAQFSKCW
Another assay concerns the target Histamine H1 receptor (Homo sapiens, UniProt P35367). Put plainly: Selectivity interaction (GPCR panel (PDSP screen)) EUB0001079a HRH1. Conditions: at 10 µM.
For assay [8], the target named is Serine/threonine-protein kinase PLK1 (Homo sapiens, UniProt P53350). The assay can be described thus: Selectivity interaction (ActivX KiNativ screen (kinase selectivity in THP-1 cell lysates)) EUB0000639a PLK1. It counts as subcellular. The note with it: lysate, at 0.04 µM.
Serine/threonine-protein kinase PLK1, sequence (P53350 whole entry): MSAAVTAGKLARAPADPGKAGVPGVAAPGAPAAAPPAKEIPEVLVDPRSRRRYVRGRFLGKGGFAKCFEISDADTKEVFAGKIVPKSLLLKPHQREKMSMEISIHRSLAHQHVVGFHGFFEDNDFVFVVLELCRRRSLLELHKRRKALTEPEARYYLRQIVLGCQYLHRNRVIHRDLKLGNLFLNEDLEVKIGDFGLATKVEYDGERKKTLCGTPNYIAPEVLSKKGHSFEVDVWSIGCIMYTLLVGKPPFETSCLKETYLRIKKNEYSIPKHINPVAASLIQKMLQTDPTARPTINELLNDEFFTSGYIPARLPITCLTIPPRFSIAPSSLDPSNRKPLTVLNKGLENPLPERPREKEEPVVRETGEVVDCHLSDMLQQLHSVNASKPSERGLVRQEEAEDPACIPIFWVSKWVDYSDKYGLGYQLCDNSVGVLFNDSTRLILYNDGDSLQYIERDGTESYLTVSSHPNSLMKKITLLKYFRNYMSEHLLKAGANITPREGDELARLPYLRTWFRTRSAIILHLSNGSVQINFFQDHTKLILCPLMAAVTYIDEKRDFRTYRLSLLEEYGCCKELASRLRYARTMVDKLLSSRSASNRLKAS
Assay [9] addresses T3, Protein kinase C iota type (Homo sapiens) (UniProt P41743).
T3 sequence (whole entry): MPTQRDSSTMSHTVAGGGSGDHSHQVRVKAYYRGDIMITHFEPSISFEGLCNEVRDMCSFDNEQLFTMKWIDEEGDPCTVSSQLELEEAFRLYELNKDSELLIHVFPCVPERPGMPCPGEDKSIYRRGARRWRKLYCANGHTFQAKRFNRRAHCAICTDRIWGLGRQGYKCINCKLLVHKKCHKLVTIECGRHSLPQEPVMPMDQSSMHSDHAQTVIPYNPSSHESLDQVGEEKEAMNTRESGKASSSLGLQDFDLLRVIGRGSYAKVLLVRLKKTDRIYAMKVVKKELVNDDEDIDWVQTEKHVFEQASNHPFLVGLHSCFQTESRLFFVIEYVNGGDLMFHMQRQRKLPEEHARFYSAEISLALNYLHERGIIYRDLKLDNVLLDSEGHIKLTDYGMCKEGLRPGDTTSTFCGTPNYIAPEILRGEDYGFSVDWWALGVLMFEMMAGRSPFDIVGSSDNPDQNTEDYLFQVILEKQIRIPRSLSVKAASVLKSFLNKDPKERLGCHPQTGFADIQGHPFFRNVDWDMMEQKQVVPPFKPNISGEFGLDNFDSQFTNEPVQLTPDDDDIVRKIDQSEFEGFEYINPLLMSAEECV
The assay can be described thus: Selectivity interaction (ActivX KiNativ screen (kinase selectivity in THP-1 cell lysates)) EUB0000639a PRKCI. It counts as subcellular. Conditions: lysate, at 5 µM.

In assay [10] the target is SRSF protein kinase 3 (Homo sapiens) (UniProt Q9UPE1). The assay can be described thus: Selectivity interaction (KinomeScan (DiscoverX)) EUB0000045b SRPK3.
SRSF protein kinase 3 (Homo sapiens), sequence (Q9UPE1 whole entry): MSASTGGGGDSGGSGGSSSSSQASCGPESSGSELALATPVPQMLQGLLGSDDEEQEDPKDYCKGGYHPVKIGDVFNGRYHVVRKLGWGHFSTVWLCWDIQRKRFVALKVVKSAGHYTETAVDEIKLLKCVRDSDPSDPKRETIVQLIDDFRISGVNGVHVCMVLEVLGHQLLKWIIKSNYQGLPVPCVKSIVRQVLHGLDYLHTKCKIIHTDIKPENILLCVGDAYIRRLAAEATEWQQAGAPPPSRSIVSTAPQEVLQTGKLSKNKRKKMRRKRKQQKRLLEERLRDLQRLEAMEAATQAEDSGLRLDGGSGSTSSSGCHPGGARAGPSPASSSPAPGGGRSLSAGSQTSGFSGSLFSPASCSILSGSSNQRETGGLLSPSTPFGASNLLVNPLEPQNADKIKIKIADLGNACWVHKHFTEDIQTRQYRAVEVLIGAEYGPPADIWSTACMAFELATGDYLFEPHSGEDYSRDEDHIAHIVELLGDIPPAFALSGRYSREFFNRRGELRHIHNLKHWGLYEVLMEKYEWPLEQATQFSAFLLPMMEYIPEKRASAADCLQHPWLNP
In assay [11] the target is Homeodomain-interacting protein kinase 3 (Homo sapiens, UniProt Q9H422). Put plainly: Selectivity interaction (KinomeScan (DiscoverX)) EUB0000618a HIPK3. The note with it: at 10 µM.
Homeodomain-interacting protein kinase 3, sequence (Q9H422 whole entry, looked up): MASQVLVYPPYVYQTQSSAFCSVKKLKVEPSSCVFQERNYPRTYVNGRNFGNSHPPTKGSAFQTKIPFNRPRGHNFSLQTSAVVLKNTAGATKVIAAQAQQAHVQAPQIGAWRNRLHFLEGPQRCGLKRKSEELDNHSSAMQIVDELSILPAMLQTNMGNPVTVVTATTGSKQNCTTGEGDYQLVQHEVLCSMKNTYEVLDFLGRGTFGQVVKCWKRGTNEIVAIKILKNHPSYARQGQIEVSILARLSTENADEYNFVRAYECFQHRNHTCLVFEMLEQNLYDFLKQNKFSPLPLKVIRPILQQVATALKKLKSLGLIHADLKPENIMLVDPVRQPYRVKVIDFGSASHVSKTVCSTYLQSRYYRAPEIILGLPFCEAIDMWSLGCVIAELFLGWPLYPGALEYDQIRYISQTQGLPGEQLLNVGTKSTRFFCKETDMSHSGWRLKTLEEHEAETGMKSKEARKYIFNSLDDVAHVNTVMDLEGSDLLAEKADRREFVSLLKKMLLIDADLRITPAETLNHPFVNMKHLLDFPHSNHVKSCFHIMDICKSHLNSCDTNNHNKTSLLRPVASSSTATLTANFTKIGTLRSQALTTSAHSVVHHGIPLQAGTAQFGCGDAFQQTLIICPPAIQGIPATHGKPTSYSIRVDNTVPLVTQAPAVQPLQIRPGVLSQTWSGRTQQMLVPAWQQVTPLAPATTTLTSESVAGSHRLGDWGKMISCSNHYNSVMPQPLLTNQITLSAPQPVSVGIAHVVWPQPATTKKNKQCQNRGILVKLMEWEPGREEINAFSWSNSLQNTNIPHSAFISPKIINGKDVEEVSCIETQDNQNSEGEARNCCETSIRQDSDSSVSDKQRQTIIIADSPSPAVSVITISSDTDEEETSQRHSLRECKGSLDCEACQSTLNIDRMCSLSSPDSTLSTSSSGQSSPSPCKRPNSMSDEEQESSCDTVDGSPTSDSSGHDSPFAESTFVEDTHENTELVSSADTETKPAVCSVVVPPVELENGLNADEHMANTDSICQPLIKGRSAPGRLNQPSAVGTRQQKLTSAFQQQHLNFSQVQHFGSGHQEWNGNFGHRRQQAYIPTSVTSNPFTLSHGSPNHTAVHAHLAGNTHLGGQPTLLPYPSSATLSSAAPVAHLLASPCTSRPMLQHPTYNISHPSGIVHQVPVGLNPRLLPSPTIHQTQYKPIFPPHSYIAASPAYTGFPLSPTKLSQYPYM
Assay [12] has as its target T4, Serine/threonine-protein kinase 17B (Homo sapiens) (UniProt O94768).
T4 sequence (whole entry): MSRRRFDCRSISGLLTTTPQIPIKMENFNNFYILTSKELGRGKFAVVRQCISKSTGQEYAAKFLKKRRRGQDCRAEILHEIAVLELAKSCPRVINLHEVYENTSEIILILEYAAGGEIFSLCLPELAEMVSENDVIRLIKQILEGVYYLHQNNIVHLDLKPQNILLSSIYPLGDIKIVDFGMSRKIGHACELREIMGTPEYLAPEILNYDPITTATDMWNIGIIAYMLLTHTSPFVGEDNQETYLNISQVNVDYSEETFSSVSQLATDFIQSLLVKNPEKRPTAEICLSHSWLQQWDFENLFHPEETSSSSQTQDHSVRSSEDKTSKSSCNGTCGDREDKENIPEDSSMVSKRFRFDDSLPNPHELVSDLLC
The assay can be described thus: Selectivity interaction (KinomeScan (DiscoverX)) EUB0000595a STK17B. Conditions: at 10 µM.

Each structure is given as a SMILES string.

Calcium/calmodulin-dependent protein kinase type II subunit gamma (Homo sapiens), sequence (Q13555 whole entry): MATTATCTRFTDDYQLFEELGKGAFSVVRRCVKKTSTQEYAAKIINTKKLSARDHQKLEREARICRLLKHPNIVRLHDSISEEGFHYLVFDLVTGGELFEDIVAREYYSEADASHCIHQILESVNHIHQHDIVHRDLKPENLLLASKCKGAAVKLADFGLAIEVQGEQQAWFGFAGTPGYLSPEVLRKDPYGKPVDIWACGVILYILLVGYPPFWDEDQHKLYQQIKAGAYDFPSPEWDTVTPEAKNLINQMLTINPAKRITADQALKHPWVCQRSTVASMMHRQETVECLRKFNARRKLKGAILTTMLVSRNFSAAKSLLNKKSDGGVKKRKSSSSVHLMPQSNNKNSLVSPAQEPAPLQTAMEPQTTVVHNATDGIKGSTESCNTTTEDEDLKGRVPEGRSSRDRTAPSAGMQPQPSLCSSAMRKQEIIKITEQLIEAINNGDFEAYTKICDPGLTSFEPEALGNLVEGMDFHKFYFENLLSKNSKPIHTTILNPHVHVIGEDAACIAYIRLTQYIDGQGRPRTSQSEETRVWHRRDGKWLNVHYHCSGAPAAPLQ
Non-receptor tyrosine-protein kinase TYK2, sequence (P29597 whole entry): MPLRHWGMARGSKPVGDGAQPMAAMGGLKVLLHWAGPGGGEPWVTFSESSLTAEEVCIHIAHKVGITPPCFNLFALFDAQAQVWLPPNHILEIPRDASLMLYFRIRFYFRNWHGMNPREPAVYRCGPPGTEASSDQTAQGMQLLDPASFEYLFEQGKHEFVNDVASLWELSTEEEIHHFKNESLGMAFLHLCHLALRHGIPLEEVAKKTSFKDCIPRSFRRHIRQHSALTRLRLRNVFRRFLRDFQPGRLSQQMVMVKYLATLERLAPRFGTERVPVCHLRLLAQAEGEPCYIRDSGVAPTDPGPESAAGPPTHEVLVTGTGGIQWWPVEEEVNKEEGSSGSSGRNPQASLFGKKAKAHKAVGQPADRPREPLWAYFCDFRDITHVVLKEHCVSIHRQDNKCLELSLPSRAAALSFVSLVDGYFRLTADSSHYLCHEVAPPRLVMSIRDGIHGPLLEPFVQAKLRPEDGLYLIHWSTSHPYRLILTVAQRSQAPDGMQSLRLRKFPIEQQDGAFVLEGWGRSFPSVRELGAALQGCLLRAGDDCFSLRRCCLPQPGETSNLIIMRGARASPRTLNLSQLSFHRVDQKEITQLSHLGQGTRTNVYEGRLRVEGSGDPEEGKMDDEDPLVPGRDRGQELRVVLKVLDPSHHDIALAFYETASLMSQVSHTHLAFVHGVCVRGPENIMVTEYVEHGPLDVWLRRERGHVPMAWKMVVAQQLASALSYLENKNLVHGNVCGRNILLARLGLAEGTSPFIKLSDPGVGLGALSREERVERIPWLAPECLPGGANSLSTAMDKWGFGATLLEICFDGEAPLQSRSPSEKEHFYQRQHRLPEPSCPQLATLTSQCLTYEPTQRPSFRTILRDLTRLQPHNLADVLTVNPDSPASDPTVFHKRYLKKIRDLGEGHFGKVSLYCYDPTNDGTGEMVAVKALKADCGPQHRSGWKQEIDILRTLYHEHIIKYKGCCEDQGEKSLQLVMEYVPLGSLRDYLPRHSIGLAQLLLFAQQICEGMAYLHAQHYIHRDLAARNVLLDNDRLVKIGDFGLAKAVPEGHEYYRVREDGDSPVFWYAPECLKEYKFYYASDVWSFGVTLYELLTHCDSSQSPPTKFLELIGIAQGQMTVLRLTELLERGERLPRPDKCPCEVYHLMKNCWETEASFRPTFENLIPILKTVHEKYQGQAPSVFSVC

In the case of `CN(C)C/C=C/C(=O)Nc1ccc(C(=O)N2CCCC(Nc3ncc(Cl)c(-c4c[nH]c5ccccc45)n3)C2)cc1` (centres undefined), the % of control is 93% in assay [1], 98% in assay [2] and 94% in assay [3].

Turning to `Cc1cc(C)cc([C@@H]2c3cc(C)ccc3NC(=O)CN2C(=O)c2ccc(Br)s2)c1`, the % of inhibition in [4] was -18%. Consider `Cc1cc([C@@H](C)Nc2ccccc2C(=O)O)c2nc(N3CCOCC3)cc(=O)n2c1` [AZD-6482], for which the % of control in assay [5] is 100%; in [6], 98%. In the case of `O=C(NOC[C@H](O)CO)c1ccc(F)c(F)c1Nc1ccc(I)cc1F`, the % of control in [7] stood at 78%. For `Nc1cnc(N2CCc3cc(S(=O)(=O)Nc4c(F)cc(Cl)cc4F)cc(N4CCCC4=O)c32)nc1` [TP-020n], on Histamine H1 receptor, the % of inhibition was -2.69%. For `CC[C@@H]1[C@H](F)C(=O)N[C@@H]1COc1nccc2cc(C(N)=O)c(OC)cc12` [ZIMLOVISERTIB], the % of inhibition was 3.7% in [8] and 14.6% in [9]. As for `C=CC(=O)Nc1cc(-n2c(=O)ccc3cnc4ccc(-c5ccc(NS(C)(=O)=O)cc5)cc4c32)ccc1C`, the % of control in assay [10] (at 1 µM) was 100%; in assay [10] (at 10 µM) it was 67%. In the case of `O[C@H]1CC[C@H](Nc2ncc3nc(Nc4c(F)cc(F)cc4F)n([C@H]4CCOC4)c3n2)CC1`, in assay [11], the % of control is 95%. `COCC(=O)NC/C=C/c1ccc2ncnc(Nc3ccc(Oc4ccc(C)nc4)c(C)c3)c2c1` [CP-724714] showed a % of control in [12] of 100%.
